{"source": "patent US11185516B2", "about": "(Laboratorios Silanes S.A. DE C.V., priority 2016, dated 2021)", "key": {"[1]": {"tested_on": "IRS2 knockout mice (KO IRS2)", "test": "Serum triglycerides in IRS2 knockout mice", "assay_type": "in vivo, mouse", "conditions": "100 mg/kg/day, 8 weeks, fasting", "procedure": "(§1) At the 8-week treatment time point, there were 8 mice in each of the WT groups, 6 mice in the KO IRS2 untreated control group, 7 mice in the KO IRS2 SLN1 treated group, and 8 mice in the KO SLN2 treated group. Blood was collected at the time of sacrifice and used to measure TG under fasting conditions. […] Statistical differences between the experimental groups shown in FIG. 21 were assessed by Student's T test. P value of <0.05 is indicated by *."}, "[2]": {"tested_on": "HeLa cells", "conditions": "10 mM, 20 h", "procedure": "After the incubation, the cells were washed with PBS, collected and washed again, then fixed with methanol:acetone (50:50) for 16 h at −20° C., and stained with 10 μg/mL of propidium iodide, 0.01 mg/mL RNase, 0.01% sodium citrate, for 20 min at 37° C. in darkness. The stained cells were analyzed by flow cytometry using a BD FACS cell sorter and BD FACSuite™ software."}, "[3]": {"tested_on": "wild type controls (WT)", "conditions": "100 mg/kg/day, 8 weeks, fasting", "procedure": "as §1"}, "[4]": {"tested_on": "IRS2−/− (KO) mice", "test": "Fasting glycemia and insulinemia in female IRS2−/− mice", "assay_type": "in vivo, mouse", "conditions": "4 weeks", "source_text": "Insulin resistance characterizes type 2 diabetes, obesity, and the metabolic syndrome. Thus, insulin sensitivity is a major therapeutic objective for these metabolic diseases. Insulin receptor substrate (IRS) proteins regulate the physiological actions of insulin upon binding to the receptor. Specific deletion of IRS2 in mice produces diabetes due to a developmental reduction of the pancreatic β-cell mass and the inability of existing β-cells to expand in response to peripheral insulin resistance. Additionally, IRS2-deficiency in mice causes hepatic insulin resistance concurrent with failed suppression of hepatic glucose production. While male IRS2−/− mice often die of diabetic complications by 12 weeks of age, females IRS2−/− mice develop a milder form of diabetes and many live up to 6 months. The observation that female IRS2−/− mice eat more than controls led to the discovery that this molecule is critical for hypothalamic regulation of food intake.\nThe mean glycemic values are represented per group (n=3) pre-treatment (black bars) and post-treatment (gray bars) along with their standard deviations. […] The fasting serum insulin levels taken pre-treatment (black bars) and post-treatment (gray bars) were determined using a kit (Millipore), following the manufacturer's instructions. Mean values and standard deviations are presented for each group (n=3) (FIG. 12D).\nDue to peripheral resistance to insulin, the IRS2−/− mice also develop hyperinsulinemia."}, "[5]": {"conditions": "2:1 complex (2 molecules of metformin for 1 of glycine), aqueous solution"}, "[6]": {"test": "clinical", "conditions": "both, human, in vivo, oral, 1240 mg, tmax, median [minimum-maximum], 1240 mg single administration without food"}, "[7]": {"tested_on": "IRS2 knockout mice (IRS2-/-)", "conditions": "100 mg/kg/day, 8 weeks", "procedure": "At the 8-week treatment time point, there were 6 mice in each treatment group. Adipose tissue was collected upon sacrifice and frozen in liquid N2. Lipidomics analysis of the tissue was then performed using HPLC/MS. […] Statistical differences between the experimental groups shown in FIG. 22 were assessed by Student's T test. P value of <0.01 is indicated by **."}, "[8]": {"tested_on": "type 2 diabetes patients"}, "[9]": {"tested_on": "GLUT4", "test": "GLUT4 translocation (FIG. 19A)"}, "[10]": {"tested_on": "AS160", "test": "In vitro AS160 phosphorylation in the presence of GPBP, AMPK and AKT", "assay_type": "biochemical", "conditions": "5 mM, with FLAG-GPBP, AKT, AMPK", "procedure": "The reactions (25 μL) were carried out at 30° C., and stirred (350 rpm) for 15 min. Then, they were stopped with a reducing loading buffer, heated (95° C., 2 min), and analyzed using electrophoresis, electrotransfer, and autoradiography."}, "[11]": {"tested_on": "insulin receptor (IRβ)", "conditions": "10 mM, 3 h", "source_text": "Next, cells were washed with PBS and their membrane proteins were extracted."}, "[12]": {"target": "GPBP and AKT (Homo sapiens, UniProt Q9Y5P4)", "sequence (Q9Y5P4 whole entry)": "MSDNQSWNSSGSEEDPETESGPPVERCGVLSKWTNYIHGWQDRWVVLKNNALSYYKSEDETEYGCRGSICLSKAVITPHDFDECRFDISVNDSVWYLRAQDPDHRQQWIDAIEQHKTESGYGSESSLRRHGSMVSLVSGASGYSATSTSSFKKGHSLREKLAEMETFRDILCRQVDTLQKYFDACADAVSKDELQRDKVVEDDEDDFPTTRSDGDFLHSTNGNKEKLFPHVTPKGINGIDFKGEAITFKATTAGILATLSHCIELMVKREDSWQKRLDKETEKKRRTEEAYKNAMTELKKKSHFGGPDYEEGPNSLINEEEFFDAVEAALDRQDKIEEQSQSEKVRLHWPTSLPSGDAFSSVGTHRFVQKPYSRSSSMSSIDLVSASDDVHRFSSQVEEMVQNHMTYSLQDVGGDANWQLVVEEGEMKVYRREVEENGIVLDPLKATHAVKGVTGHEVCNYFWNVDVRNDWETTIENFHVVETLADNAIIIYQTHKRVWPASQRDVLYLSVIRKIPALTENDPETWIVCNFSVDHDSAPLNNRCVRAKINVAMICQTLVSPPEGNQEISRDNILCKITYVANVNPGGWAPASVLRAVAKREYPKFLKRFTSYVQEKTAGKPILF", "conditions": "5 mM", "procedure": "Two hundred nanograms of AS160 (Origene Technologies) was incubated either in the absence (−) or in the presence (+) of FLAG-GPBP (270 ng), AKT (Millipore) (200 ng) and SLN1 or SLN2 (5 mM) in phosphorylation solution (β-glycerophosphate 25 mM (pH 7.0), EDTA 0.5 mM, EGTA 0.5 mM, MgCl2 8 mM, MnCl2 5 mM, DTT 1 mM) without ATP for 10 min at RT, after which [γ-^32P] ATP (Perkin Elmer) (0.132 μM) and ATP (Sigma) (100 μM) were added. Reaction cocktails (25 μl) were incubated at 30° C. for 15 min, and stirred (350 rpm)."}, "[13]": {"tested_on": "C2C12 myotubes", "test": "Glucose concentration of C2C12 myotube cultures in M1 macrophage conditioned media", "assay_type": "cell-based, mouse", "conditions": "macrophages treated with 10 mM for 2 h, then LPS/IFNγ 16 h", "procedure": "There is considerable evidence showing that inflammation and hyperglycemia are interconnected: inflammation induces hyperglycemia and reciprocally hyperglycemia induces inflammation with the molecular bases not elucidated yet. To explore the participation of GPBP, glucose intake under normoglycemic conditions with conditioned media generated by macrophages differentiated to a proinflammatory M1 phenotype was monitored.\n[…]. The glucose concentration of the myotube cultures was determined at different times with Glucocard (Arkray). The controls used were the C2C12 cultured with media conditioned with no stimulated macrophages (Cells) or with M1 conditioned media (M1). The initial glucose levels (time 0) were used as a reference (100%) in each series."}}}
{"smiles": "CN(C)C(=N)NC(=N)N", "note": "[Metformin glycinate, N,N-dimethylimidodicarbonimidic diamide glycinate]", "values": [{"measurement": "serum triglycerides compared to untreated KO IRS2", "setting": "[1]", "value": "lower"}, {"measurement": "cancer cells entering G1 phase cell cycle arrest", "setting": "[2]", "value": "about 56%"}, {"measurement": "serum triglycerides compared to untreated or SLN1-treated control mice", "setting": "[3]", "value": "lower"}, {"measurement": "fasting glycemia post-treatment", "setting": "[4]; 100 mg/kg/day with food, 10-12 weeks old", "value": "significantly lower than those pre-treatments"}, {"measurement": "fasting insulin levels", "setting": "[4]; 100 mg/kg/day", "value": "lowered the fasting insulin levels"}, {"measurement": "complexation constant", "setting": "[5]", "value": "712±19"}, {"measurement": "Tmax", "setting": "[6]", "value": 1.5, "unit": "h"}, {"measurement": "adipose tissue triglyceride 16:0 compared to control IRS2−/−", "setting": "[7]", "value": "significantly lower"}, {"measurement": "adipose tissue triglyceride 18:1n-9c compared to control IRS2−/−", "setting": "[7]", "value": "drastically reduced"}, {"measurement": "A1c level after two months treatment", "setting": "[8]; 1050.6 mg per day 30 days, then 1050.6 mg twice a day 30 days, p=0.008", "value": "7.1±1.0", "unit": "%"}, {"measurement": "A1c level before treatment", "setting": "[8]; DMMET01 group, baseline", "value": "8.1±0.8", "unit": "%"}, {"measurement": "reduction of the A1c level", "setting": "[8]; after two months treatment", "value": "more than 1%"}, {"measurement": "sensitivity to insulin (Glucose CLAMP)", "setting": "[8]; after two months treatment", "value": "did not change"}, {"measurement": "adverse events vs placebo", "setting": "[8]; two months treatment", "value": "No statistically significant difference in adverse events"}, {"measurement": "GLUT4 translocation", "setting": "[9]", "value": "translocated GLUT4"}, {"measurement": "phosphorylation of AS160", "setting": "[10]", "value": "increased"}, {"measurement": "accumulation of IRβ on the cell membrane vs metformin hydrochloride", "setting": "[11]", "value": "significantly more accumulation"}, {"measurement": "GPBP and AKT cross activation", "setting": "[12]", "value": "counteracted GPBP and AKT cross activation"}, {"measurement": "glucose levels of myotube cultures (hyperglycemic levels)", "setting": "[13]", "value": "maintained values at normoglycemic levels"}]}
